Target: BIR3 domain of human cIAP1 (amino acids 256 to 363; cIAP1 BIR3) (Homo sapiens (Human), UniProt Q13490)
Experiment: cIAP1 BIR3 binding assay (DELFIA)
Conditions: BIR3 domain 10 nM, SMAC peptide 10 nM; values represent the (S)-isomers; * = racemic compound; read-out: cIAP1 BIR-3 IC50
Protocol: XIAP BIR3 and cIAP1 BIR3 Binding Assays (DELFIA)
Peptide […]-Lys(Biotin), representing the N-terminus of mature human SMAC (SMAC peptide), was used as interaction partner in the protein-peptide interaction assay.
BIR3 domains (10 nM) were incubated with SMAC peptide (10 nM) in assay buffer (50 mM Tris, 120 mM NaCl, 0.1% BSA, 1 mM DTT, 0.05% TritonX100) for one hour at room temperature in the presence of inhibitory compounds. The assay mixture was transferred to a streptavidin coated plate and incubated for one hour at room temperature to allow binding of the biotinylated peptide and associated BIR3 domains to the plate. After several washing steps Eu labeled anti-GST antibody (e.g. Perkin Elmer DELFIA Eu-N1-antiGST AD0250) was added to detect BIR3 domain-SMAC peptide interactions m according to Perkin Elmer's instructions. […] Time resolved Europium fluoresecence was measured in a Wallac Victor using Standard assay settings.
DELFIA assay results were plotted against compound concentrations and Software GraphPad Prizm was used to calculate half maximal inhibitory concentrations (IC50 values).

BIR3 domain of human cIAP1 (amino acids 256 to 363; cIAP1 BIR3), sequence (Q13490 256-363): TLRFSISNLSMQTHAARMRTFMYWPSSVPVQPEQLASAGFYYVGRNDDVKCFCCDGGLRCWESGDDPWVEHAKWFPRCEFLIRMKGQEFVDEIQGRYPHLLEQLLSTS

- IC50: 55 nM
SMILES: CNC(C)C(=O)Nc1cc(-c2nc(OC)nc3c(C)nn(C)c23)cc(NC(=O)c2ccc(Cl)cn2)n1 (stereo not shown) [Example 63, 5-chloro-N-(4-{5-methoxy-1,3-dimethyl-1H-pyrazolo[4,3-d]pyrimidin-7-yl}-6-[2-(methylamino)-propanamido]pyridin-2-yl)pyridine-2-carboxamide]

From US9249151B2, “Bis-amido pyridines” (Boehringer Ingelheim International GmbH, priority 2013, dated 2016)
